This note sets out measurements from patent US6685617B1, “Inhibitors of α4β1 mediated cell adhesion” (Pharmacia & Upjohn Company, priority 1998, dated 2004).

Experiment [1] addresses T1, α4β1 integrin (Jurkat T-cell adhesion to IL-1 stimulated endothelial cell monolayers) (Homo sapiens, UniProt P05556+P13612).
T1 construct: a T-cell line, Jurkat, known to express the α4β1 integrin; host or cells: Jurkat T-cell line
As to the kind of experiment: Jurkat-endothelial cell adhesion assay (Jurkat EC). It is filed as cell-based. Particulars: Jurkat cells on IL-1 stimulated human umbilical vein endothelial cells; read-out: JK/EC (Jurkat EC Assay IC50 value range). In short, it runs like this: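 Adhesion was expressed as percent of compound-free fluorescence after 20 min at 37° C (following 5 min settling on ice) of BCECF-loaded Jurkat T cells on washed HUVEC monolayers. The endothelium, passage 6 or lower, had received 0.1 ng/ml recombinant IL-1 for 4 hr at 37° C; compound was premixed with the T cells, typically at 100, 20, 5 and 1.25 μM.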

The target of experiment [2] is T2, α4β1 integrin (Jurkat cell adhesion to immobilized CS-1 derived peptide CLHPGEILDVPST) (Homo sapiens, UniProt P05556+P13612).
T2 construct: 100 μl of Jurkat cells (2.5×10^6 cells/ml) in DMEM plus BSA; host or cells: Jurkat T-cell line
T2 sequence (P13612 34-1032): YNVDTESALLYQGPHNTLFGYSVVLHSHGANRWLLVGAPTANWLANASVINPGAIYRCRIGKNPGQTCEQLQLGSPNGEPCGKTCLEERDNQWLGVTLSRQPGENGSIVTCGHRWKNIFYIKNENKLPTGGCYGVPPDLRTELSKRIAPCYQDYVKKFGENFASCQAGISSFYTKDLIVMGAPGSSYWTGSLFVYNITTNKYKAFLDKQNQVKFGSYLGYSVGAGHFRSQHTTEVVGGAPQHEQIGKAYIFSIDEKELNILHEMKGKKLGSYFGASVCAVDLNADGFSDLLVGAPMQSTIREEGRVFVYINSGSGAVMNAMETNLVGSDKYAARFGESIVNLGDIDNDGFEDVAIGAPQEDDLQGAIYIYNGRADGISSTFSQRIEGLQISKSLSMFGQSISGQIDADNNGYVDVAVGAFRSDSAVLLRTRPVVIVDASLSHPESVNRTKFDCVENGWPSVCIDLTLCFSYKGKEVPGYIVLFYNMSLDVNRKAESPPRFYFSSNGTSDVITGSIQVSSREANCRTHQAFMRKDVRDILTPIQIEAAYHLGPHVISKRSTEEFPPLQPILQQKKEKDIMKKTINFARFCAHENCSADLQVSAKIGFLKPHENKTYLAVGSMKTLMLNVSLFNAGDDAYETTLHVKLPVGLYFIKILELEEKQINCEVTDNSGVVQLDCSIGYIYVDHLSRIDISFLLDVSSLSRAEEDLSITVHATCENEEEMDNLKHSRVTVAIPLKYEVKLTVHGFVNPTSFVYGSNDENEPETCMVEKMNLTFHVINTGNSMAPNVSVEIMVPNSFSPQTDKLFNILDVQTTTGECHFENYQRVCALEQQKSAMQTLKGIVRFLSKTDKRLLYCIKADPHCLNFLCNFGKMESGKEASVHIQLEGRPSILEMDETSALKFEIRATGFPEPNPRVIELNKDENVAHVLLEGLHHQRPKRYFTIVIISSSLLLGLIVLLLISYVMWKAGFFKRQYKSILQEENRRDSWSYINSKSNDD
T2 sequence (P05556 21-798): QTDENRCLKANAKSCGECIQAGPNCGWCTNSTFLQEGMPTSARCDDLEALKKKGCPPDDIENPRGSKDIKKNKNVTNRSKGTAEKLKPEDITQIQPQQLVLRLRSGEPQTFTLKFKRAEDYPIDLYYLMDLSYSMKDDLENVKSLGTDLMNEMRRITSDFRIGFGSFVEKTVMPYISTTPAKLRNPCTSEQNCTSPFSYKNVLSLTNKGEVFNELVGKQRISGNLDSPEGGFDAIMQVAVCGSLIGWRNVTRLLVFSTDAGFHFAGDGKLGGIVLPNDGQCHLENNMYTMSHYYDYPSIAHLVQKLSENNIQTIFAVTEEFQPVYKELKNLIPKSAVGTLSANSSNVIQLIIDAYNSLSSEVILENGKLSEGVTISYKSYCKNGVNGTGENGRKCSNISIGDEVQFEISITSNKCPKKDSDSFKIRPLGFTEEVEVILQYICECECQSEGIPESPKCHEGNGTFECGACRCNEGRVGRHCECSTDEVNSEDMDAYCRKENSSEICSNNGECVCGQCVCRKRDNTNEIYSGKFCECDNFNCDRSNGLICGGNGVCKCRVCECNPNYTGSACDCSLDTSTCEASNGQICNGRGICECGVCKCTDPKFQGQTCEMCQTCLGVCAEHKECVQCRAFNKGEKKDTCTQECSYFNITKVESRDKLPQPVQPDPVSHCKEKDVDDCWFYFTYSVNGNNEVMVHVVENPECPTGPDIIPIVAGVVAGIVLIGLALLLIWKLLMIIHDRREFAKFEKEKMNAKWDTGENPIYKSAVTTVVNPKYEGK
As to the kind of experiment: Jurkat-CS-1 assay. Particulars: Jurkat cells on CS-1 peptide coated plates; read-out: JK/CS-1 (Jurkat CS-1 Assay IC50 value range). The class given is cell-based. An outline of the steps: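 CS-1 peptide was SPDP-crosslinked onto HSA-coated plates and blocked with BSA. Jurkat cells (2.5×10^6 cells/ml) in DMEM/BSA were mixed with compound, generally at 100, 20, 5 and 1.25 μM, and allowed to adhere for 1 hr at 37° C. Bound cells were fixed, stained with toluidine blue and quantified by OD590.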

Where a name gives a salt, the structure may show the parent alone. Some results are limits rather than exact numbers.

T1 sequence (P13612 34-1032): as the sequence (P13612 34-1032) above
T1 sequence (P05556 21-798): as the sequence (P05556 21-798) above

On to `O=C(Nc1ccc(C[C@H](NC(=O)[C@H]2CSCN2C(=O)N(CCO)CCO)C(=O)O)cc1)c1c(Cl)cccc1Cl` [Example 58, N-[[(4S)-3-[[bis(2-Hydroxyethyl)amino]carbonyl]thiazoldinyl]carbonyl]-4-[(2,6-dichlorobenzoyl)amino]-L-phenylalanine], for which the IC50 in experiment [1] was at most 250 nM; in experiment [2], at most 50 nM.
In the same order, the values of `COC(=O)[C@H](Cc1ccc(NC(=O)c2c(Cl)cccc2Cl)cc1)NC(=O)[C@H]1CSCN1C(C)=O` [Example 61, N-[[(4S)-3-Acetyl-4-thiazolidinyl]carbonyl]-4-[(2,6-dichlorobenzoyl)amino]-L-phenylalanine Methyl Ester] are 250 to 1000 nM and 50 to 750 nM.
In the same order, the values of `CC(=O)N1CSC[C@@H]1C(=O)N[C@@H](Cc1ccc(NC(=O)c2c(Cl)cccc2Cl)cc1)C(=O)O` [Example 62, N-[[(4S)-3-Acetyl-4-thiazolidinyl]carbonyl]-4-[(2,6-dichlorobenzoyl)amino]-L-phenylalanine] are at most 250 nM and at most 50 nM.
The like results for `COC(=O)[C@H](Cc1ccc(OCc2c(Cl)cccc2Cl)cc1)NC(=O)[C@H]1CSCN1C(C)=O` [Example 65, N-[[(4S)-3-Acetyl-4-thiazolidinyl]carbonyl]-O-[(2,6-dichlorophenyl)methyl]-L-tyrosine Methyl Ester] were, in that order, at least 1000 nM and 50 to 750 nM.
On to `CC(=O)N1CSC[C@@H]1C(=O)N[C@@H](Cc1ccc(OCc2c(Cl)cccc2Cl)cc1)C(=O)O` [Example 66, N-[[(4S)-3-Acetyl-4-thiazolidinyl]carbonyl]-O-[(2,6-dichlorophenyl)methyl]-L-tyrosine], for which the figures for the IC50 in experiment [1] and in experiment [2] were at most 250 nM and 50 to 750 nM, respectively.
In the same order, the values of `COC(=O)[C@H](Cc1ccc(NC(=O)c2c(Cl)cccc2Cl)cc1)NC(=O)[C@@H]1CSCN1C(C)=O` [Example 69, N-[[(4R)-3-Acetyl-4-thiazolidinyl]carbonyl]-4-[(2,6-dichlorobenzoyl)amino]-L-phenylalanine Methyl Ester] are at least 1000 nM and at least 750 nM.
The like results for `CC(=O)N1CSC[C@H]1C(=O)N[C@@H](Cc1ccc(NC(=O)c2c(Cl)cccc2Cl)cc1)C(=O)O` [Example 70, N-[[(4R)-3-Acetyl-4-thiazolidinyl]carbonyl]-4[(2,6-dichlorobenzoyl)amino]-L-phenylalanine] were, in that order, 250 to 1000 nM and at most 50 nM.
The like results for `O=C(Nc1ccc(C[C@H](NC(=O)[C@@H]2CSCN2)C(=O)O)cc1)c1c(Cl)cccc1Cl` [Example 71, 4-[(2,6-Dichlorobenzoyl)amino]-N-[[(4R)-4-thiazolidinyl]carbonyl]-L-phenylalanine Monohydrochloride Salt] were, in that order, at least 1000 nM and at least 750 nM.
Regarding `CC1(C)N[C@H](C(=O)N[C@@H](Cc2ccc(NC(=O)c3c(Cl)cccc3Cl)cc2)C(=O)O)CS1` [Example 74, 4-[(2,6-Dichlorobenzoyl)amino]-N-[[(4R)-2,2-dimethyl-4-thiazolidinyl]carbonyl]-L-phenylalanine], the IC50 was 250 to 1000 nM in experiment [1] and 50 to 750 nM in experiment [2].
The like results for `COC(=O)[C@H](Cc1ccc(NC(=O)c2c(Cl)cccc2Cl)cc1)NC(=O)[C@H]1CSC(C)(C)N1C(C)=O` [Example 83, N-[[(4S)-3-Acetyl-2,2-dimethyl-4-thiazolidinyl]carbonyl]-4-[(2,6-dichlorobenzoyl)amino]-L-phenylalanine Methyl Ester] were, in that order, at least 1000 nM and 50 to 750 nM.
In the same order, the values of `CC(=O)N1[C@@H](C(=O)N[C@@H](Cc2ccc(NC(=O)c3c(Cl)cccc3Cl)cc2)C(=O)O)CSC1(C)C` [Example 84, N-[[(4S)-3-Acetyl-2,2-dimethyl-4-thiazolidinyl]carbonyl]-4-[(2,6-dichlorobenzoyl)amino]-L-phenylalanine] are at most 250 nM and at most 50 nM.
The like results for `COC(=O)[C@H](Cc1ccc(NC(=O)c2c(Cl)cccc2Cl)cc1)NC(=O)[C@@H]1N(C(C)=O)C(C)(C)SC1(C)C` [Example 87, N-[[(4S)-3-Acetyl-2,2,5,5-tetramethyl-4-thiazolidinyl]carbonyl]-4-[(2,6-dichlorobenzoyl)amino]-L-phenylalanine Methyl Ester] were, in that order, at least 1000 nM and at least 750 nM.
For the compound `O=C(NO)[C@H](Cc1ccc(OCc2c(Cl)cccc2Cl)cc1)NC(=O)[C@H]1CSCN1C(=O)OCCN1CCOCC1` [Example 91], the IC50 in experiment [1] was at least 1000 nM; in experiment [2] it was at least 750 nM.
In the same order, the values of `CCOC(=O)N1CSC[C@@H]1C(=O)N[C@@H](Cc1ccc(OCc2c(Cl)cccc2Cl)cc1)C(=O)NO` [Example 92] are at least 1000 nM and at least 750 nM.
In the same order, the values of `O=C(NO)[C@H](Cc1ccc(OCc2c(Cl)cccc2Cl)cc1)NC(=O)[C@H]1CSCN1C(=O)OCCN1CCCCC1` [Example 93] are at least 1000 nM and at least 750 nM.
As to `COC(=O)[C@H](Cc1ccc(NC(=O)c2c(Cl)cccc2Cl)cc1)NC(=O)[C@@H]1CSCCN1C(=O)OC(C)(C)C` [Example 96], the IC50 in experiment [1] was at least 1000 nM; in experiment [2] it was at least 750 nM.
In the same order, the values of `COC(=O)[C@H](Cc1ccc(NC(=O)c2c(Cl)cccc2Cl)cc1)NC(=O)[C@@H]1CSCCN1` [Example 97] are at least 1000 nM and at least 750 nM.
The like results for `O=C(Nc1ccc(C[C@H](NC(=O)[C@@H]2CSCCN2)C(=O)O)cc1)c1c(Cl)cccc1Cl` [Example 101, 4-[(2,6-Dichlorobenzoyl)amino]-N-[[(3R)-3-thiomorpholinyl]carbonyl]-L-phenylalanine Monohydrochloride] were, in that order, 250 to 1000 nM and 50 to 750 nM.
The like results for `COC(=O)[C@H](Cc1ccc(NC(=O)c2c(Cl)cccc2Cl)cc1)NC(=O)[C@@H]1CSCCN1C(=O)CCc1nnn[nH]1` [Example 102, 4-[(2,6-Dichlorobenzoyl)amino]-N-[[(3R)-4-[1-oxo-3-(1H-tetrazol-5-yl)propyl]-3-thiomorpholinyl]carbonyl]-L-phenylalanine Methyl Ester] were, in that order, at least 1000 nM and at least 750 nM.
For `O=C(Nc1ccc(C[C@H](NC(=O)[C@@H]2CSCCN2C(=O)CCc2nnn[nH]2)C(=O)O)cc1)c1c(Cl)cccc1Cl` [Example 103, 4-[(2,6-Dichlorobenzoyl)amino]-N-[[(3R)-4-[1-oxo-3-(1H-tetrazol-5-yl)propyl]-3-thiomorpholinyl]-carbonyl]-L-phenylalanine], the IC50 in experiment [1] is 250 to 1000 nM; in experiment [2] it was at most 50 nM.
With `N#CCCC(=O)N1CCSC[C@H]1C(=O)N[C@@H](Cc1ccc(NC(=O)c2c(Cl)cccc2Cl)cc1)C(=O)O` [Example 104, N-[[(3R)-4-(3-Cyano-1-oxopropyl)-3-thiomorpholinyl]carbonyl]-4-[[2,6-dichlorobenzoyl)amino]-L-phenylalanine], the IC50 in experiment [1] is at least 1000 nM; in experiment [2], 50 to 750 nM.
The like results for `CN1C(=O)CCC1(CCC(=O)O)CCC(=O)N[C@@H](Cc1ccc(OCc2c(Cl)cccc2Cl)cc1)C(=O)O` (stereo partly drawn) [Example 107, 2-[3-[[(1S)-1-Carboxy-2-[4-[(2,6-dichlorophenyl)methoxy]phenyl]ethyl]amino]-3-oxo-propyl]-1-methyl-5-oxo-2-pyrrolidinepropanoic Acid] were, in that order, at least 1000 nM and 50 to 750 nM.
Take `CC(C)=CCN1C(=O)CCC1(CCC(=O)O)CCC(=O)N[C@@H](Cc1ccc(OCc2c(Cl)cccc2Cl)cc1)C(=O)O` (stereo partly drawn) [Example 109, 2-[3-[[(1S)-1-Carboxy-2-[4-[(2,6-dichlorophenyl)methoxy]phenyl]ethyl]amino]-3-oxo-propyl]-1-(3-methyl-2-butenyl)-5-oxo-2-pyrrolidinepropanoic Acid]: the IC50 in experiment [1] is at least 1000 nM; in experiment [2] it was at least 750 nM.
For `CN1C(=O)CCC1(CCC(=O)O)CCC(=O)N[C@@H](Cc1ccc(NC(=O)c2c(Cl)cccc2Cl)cc1)C(=O)O` (stereo partly drawn) [Example 111, 2-[3-[[(1S)-1-Carboxy-2-[4-[(2,6-dichlorobenzoyl)amino]phenyl]ethyl]amino]-3-oxo-propyl]-1-methyl-5-oxo-2-pyrrolidinepropanoic Acid], the IC50 in experiment [1] lay within 250 to 1000 nM; in experiment [2], 50 to 750 nM.
In the same order, the values of `O=C(O)CCC1(CCC(=O)N[C@@H](Cc2ccc(OCc3c(Cl)cccc3Cl)cc2)C(=O)O)CCC(=O)N1` (stereo partly drawn) [Example 113, 2-[3-[[(1S)-1-Carboxy-2-[4-[(2,6-dichlorophenyl)methoxy]phenyl]ethyl]amino]-3-oxo-propyl]-5-oxo-2-pyrrolidinepropanoic Acid] are at least 1000 nM and 50 to 750 nM.
The like results for `COC(=O)CCC1(CCC(=O)N[C@@H](Cc2ccc(NC(=O)c3c(Cl)cccc3Cl)cc2)C(=O)OC)CCC(=O)N1` (stereo partly drawn) [Example 114, 2-[3-[[(1S)-1-[[4-[(2,6-Dichlorobenzoyl)amino]phenyl]methyl]-2-methoxy-2-oxoethyl]amino]-3-oxopropyl]-5-oxo-2-pyrrolidinepropanoic Acid Methyl Ester] were, in that order, at least 1000 nM and at least 750 nM.
In the same order, the values of `O=C(O)CCC1(CCC(=O)N[C@@H](Cc2ccc(NC(=O)c3c(Cl)cccc3Cl)cc2)C(=O)O)CCC(=O)N1` (stereo partly drawn) [Example 115] are at least 1000 nM and 50 to 750 nM.
